Laboratory results: article doi:10.1101/2020.06.11.145995v1 (biorxiv, 2020)
Where two headings read alike, the source gives them in different places.

Legend:
Experiment in all cases: biochemical
[1] = molecular target: PAK3 (Homo sapiens, UniProt O75914)
[2] = molecular target: ROS1 (Homo sapiens, UniProt P08922)
[3] = molecular target: PLK1 (Homo sapiens, UniProt P53350)
[4] = molecular target: PRKD2 (Homo sapiens, UniProt Q9BZL6)
[5] = molecular target: NEK7 (Homo sapiens, UniProt Q8TDX7)
[6] = molecular target: PIK3CA(E545K) (Homo sapiens, UniProt P42336, E545K)
Sequence of PIK3CA(E545K) (P42336 whole entry E545K): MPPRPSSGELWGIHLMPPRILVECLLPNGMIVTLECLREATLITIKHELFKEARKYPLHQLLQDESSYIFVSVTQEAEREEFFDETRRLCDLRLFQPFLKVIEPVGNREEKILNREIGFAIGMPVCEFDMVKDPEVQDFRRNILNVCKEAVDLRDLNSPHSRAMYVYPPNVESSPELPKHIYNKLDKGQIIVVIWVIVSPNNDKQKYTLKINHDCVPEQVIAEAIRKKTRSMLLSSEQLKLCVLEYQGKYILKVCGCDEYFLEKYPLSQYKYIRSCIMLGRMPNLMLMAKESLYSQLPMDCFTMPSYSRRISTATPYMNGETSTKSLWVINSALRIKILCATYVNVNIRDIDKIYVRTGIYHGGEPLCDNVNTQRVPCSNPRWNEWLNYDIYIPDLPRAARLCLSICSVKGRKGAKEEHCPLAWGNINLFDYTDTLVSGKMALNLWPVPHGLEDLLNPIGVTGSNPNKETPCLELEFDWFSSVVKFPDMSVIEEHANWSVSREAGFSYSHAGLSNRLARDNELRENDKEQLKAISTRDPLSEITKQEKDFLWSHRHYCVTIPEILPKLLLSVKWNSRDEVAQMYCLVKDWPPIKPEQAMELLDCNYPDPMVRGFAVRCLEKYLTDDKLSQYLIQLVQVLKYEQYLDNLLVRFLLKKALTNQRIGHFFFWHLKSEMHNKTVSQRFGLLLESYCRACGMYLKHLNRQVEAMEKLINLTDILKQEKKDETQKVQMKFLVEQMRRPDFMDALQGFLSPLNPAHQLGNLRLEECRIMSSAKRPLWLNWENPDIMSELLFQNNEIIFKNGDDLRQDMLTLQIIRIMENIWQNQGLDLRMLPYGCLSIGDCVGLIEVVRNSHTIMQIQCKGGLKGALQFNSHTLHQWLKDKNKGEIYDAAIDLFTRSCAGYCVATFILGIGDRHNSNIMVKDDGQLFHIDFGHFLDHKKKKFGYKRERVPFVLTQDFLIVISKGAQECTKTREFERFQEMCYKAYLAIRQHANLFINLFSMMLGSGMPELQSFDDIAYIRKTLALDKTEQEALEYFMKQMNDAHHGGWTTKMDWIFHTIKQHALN

[7] = molecular target: PRP4 (Homo sapiens, UniProt Q13523)
Sequence of PRP4 (Q13523 whole entry): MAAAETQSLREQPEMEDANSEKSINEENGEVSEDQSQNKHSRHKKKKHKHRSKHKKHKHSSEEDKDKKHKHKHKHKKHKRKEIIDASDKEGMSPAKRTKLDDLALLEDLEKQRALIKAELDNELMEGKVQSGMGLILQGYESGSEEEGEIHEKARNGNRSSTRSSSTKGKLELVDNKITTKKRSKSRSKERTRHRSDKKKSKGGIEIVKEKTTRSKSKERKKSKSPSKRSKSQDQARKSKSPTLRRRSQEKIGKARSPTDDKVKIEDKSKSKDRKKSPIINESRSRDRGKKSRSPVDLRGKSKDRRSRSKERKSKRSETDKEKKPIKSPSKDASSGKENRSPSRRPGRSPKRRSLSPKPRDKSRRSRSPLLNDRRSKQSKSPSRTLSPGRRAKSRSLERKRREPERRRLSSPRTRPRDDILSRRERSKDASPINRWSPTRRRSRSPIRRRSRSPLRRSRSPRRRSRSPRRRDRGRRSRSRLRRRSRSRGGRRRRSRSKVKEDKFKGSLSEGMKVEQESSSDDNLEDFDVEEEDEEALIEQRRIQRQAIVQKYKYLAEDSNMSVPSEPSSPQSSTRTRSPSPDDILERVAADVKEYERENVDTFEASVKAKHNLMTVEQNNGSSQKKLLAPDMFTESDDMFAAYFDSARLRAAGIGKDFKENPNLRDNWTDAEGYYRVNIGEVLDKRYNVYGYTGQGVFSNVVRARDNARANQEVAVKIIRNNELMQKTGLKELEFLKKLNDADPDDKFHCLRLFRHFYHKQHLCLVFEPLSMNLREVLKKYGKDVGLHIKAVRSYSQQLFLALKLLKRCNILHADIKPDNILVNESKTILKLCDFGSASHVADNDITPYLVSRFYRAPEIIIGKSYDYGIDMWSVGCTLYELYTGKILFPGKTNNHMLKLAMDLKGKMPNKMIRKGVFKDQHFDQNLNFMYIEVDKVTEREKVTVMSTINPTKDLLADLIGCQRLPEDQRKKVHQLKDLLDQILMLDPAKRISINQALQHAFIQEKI

[8] = molecular target: ROCK1 (Homo sapiens, UniProt Q13464)
Sequence of ROCK1 (Q13464 whole entry): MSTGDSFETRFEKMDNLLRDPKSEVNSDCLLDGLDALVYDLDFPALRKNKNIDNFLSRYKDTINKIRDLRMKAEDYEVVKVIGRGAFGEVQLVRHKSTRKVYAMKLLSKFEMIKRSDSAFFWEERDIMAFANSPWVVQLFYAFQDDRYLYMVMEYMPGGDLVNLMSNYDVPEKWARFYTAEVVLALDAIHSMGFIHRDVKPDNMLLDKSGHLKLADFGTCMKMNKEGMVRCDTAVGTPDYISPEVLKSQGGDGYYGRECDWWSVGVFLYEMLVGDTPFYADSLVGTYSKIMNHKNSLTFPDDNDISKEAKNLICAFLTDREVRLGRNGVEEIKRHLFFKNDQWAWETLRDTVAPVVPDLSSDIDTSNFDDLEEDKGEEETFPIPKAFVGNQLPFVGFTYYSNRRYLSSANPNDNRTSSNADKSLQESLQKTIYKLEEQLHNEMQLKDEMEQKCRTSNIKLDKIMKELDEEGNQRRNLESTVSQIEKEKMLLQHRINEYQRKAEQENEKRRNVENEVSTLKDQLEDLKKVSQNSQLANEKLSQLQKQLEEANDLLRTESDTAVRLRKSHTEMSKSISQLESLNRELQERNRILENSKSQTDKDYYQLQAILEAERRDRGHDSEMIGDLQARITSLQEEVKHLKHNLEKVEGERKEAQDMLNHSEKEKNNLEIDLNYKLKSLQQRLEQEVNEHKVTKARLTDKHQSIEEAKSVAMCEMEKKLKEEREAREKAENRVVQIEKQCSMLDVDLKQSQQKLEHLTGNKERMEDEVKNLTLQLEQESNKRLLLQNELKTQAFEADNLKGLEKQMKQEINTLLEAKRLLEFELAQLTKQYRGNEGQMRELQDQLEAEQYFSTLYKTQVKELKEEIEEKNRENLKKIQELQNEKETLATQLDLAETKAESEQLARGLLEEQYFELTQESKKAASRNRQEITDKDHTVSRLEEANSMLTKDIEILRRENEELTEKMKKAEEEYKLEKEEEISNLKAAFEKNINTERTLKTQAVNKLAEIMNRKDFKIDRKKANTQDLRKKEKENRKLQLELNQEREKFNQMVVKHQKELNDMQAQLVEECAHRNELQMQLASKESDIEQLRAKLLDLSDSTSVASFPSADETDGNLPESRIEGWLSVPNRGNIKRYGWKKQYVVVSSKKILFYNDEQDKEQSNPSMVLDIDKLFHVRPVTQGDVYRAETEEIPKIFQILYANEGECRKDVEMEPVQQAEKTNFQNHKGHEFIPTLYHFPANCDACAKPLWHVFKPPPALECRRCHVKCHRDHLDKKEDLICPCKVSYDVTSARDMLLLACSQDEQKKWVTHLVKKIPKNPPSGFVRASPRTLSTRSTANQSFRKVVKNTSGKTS

[9] = molecular target: PAK4 (Homo sapiens, UniProt O96013)
[10] = molecular target: PRKG1 (Homo sapiens, UniProt Q13976)
[11] = molecular target: PIK3CA(C420R) (Homo sapiens, UniProt P42336, C420R)
Sequence of PIK3CA(C420R) (P42336 whole entry C420R): as the sequence (P42336 whole entry E545K) above, with C420R, K545E counted along it

[12] = molecular target: SgK110 (Homo sapiens, UniProt P0C264)
[13] = molecular target: p38-alpha (Homo sapiens, UniProt Q16539)
[14] = molecular target: PAK7 (Homo sapiens, UniProt Q9P286)
[15] = molecular target: PCTK3 (Homo sapiens, UniProt Q07002)
[16] = molecular target: RSK2 (Homo sapiens, UniProt P51812)
[17] = molecular target: PIK3CA(H1047L) (Homo sapiens, UniProt P42336, H1047L)
Sequence of PIK3CA(H1047L) (P42336 whole entry H1047L): as the sequence (P42336 whole entry E545K) above, with K545E, H1047L counted along it

[18] = molecular target: SRC (Homo sapiens, UniProt P12931)
[19] = molecular target: NEK9 (Homo sapiens, UniProt Q8TD19)
[20] = molecular target: RSK4 (Homo sapiens, UniProt Q9UK32)
Sequence of RSK4 (Q9UK32 whole entry): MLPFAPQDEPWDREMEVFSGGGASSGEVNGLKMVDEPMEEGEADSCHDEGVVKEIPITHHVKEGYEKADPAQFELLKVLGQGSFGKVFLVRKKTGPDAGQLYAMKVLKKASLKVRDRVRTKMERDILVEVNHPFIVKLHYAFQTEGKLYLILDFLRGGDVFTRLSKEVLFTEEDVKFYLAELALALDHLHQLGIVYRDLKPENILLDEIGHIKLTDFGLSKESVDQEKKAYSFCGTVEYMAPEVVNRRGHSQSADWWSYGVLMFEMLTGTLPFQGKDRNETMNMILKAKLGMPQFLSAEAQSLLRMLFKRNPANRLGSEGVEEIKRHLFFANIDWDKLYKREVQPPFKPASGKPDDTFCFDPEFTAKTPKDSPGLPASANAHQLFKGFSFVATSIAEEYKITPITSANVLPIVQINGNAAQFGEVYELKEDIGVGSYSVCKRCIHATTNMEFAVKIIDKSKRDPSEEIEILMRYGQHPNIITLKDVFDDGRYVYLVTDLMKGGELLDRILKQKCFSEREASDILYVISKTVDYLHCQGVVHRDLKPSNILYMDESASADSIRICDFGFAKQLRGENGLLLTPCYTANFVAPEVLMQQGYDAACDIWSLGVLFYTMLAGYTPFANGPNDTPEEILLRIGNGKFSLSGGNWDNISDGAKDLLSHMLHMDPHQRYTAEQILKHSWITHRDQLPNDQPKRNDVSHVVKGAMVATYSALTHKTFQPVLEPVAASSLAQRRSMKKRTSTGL

[21] = molecular target: PRKCE (Homo sapiens, UniProt Q02156)
[22] = molecular target: TRKA (Homo sapiens, UniProt P04629)
[23] = molecular target: TSSK1B (Homo sapiens, UniProt Q9BXA7)
[24] = molecular target: PRKX (Homo sapiens, UniProt P51817)
[25] = molecular target: ZAK (Homo sapiens, UniProt Q9NYL2)
[26] = molecular target: NDR2 (Homo sapiens, UniProt Q9Y2H1)
[27] = molecular target: PYK2 (Homo sapiens, UniProt Q14289)
[28] = molecular target: TNK1 (Homo sapiens, UniProt Q13470)
[29] = molecular target: SRPK3 (Homo sapiens, UniProt Q9UPE1)
[30] = read-out: HYJ-2-002-1 (1μM) % control
[31] = read-out: HYJ-2-002-1 (1μM) % control, Kin.Dom.1-N-terminal
[32] = read-out: CPT-1-70-1 (1μM) % control
[33] = read-out: CPT-1-70-1 (1μM) % control, Kin.Dom.1-N-terminal

Sequence of PLK1 (P53350 whole entry): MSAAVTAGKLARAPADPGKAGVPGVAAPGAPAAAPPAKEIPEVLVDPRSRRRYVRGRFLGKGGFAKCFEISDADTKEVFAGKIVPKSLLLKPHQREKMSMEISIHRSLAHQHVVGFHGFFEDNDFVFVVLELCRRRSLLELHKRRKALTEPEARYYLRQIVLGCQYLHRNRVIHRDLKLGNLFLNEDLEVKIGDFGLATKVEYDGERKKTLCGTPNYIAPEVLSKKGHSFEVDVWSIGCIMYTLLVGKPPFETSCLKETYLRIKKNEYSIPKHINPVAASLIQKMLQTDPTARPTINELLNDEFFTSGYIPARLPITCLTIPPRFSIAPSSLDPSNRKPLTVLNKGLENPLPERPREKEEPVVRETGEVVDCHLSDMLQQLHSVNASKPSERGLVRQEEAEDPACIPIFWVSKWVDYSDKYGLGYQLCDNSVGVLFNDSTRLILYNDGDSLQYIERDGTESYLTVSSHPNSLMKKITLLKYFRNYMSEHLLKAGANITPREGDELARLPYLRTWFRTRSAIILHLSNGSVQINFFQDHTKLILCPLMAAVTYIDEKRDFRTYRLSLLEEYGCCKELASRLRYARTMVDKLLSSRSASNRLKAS

In the case of `CCN1CCN(Cc2ccc(NC(=O)c3ccc(C)c(CCc4cnc5[nH]ccc5c4OC)c3)cc2C(F)(F)F)CC1` [HYJ-2-002-1], the remaining activity at 1 µM [1, 30] is reported as 100%, the remaining activity at 1 µM [2, 30] is reported as 100% and the remaining activity at 1 µM [3, 30] is reported as 100%. The remaining activity at 1 µM [4, 30] was 42%, the remaining activity at 1 µM [5, 30] was 100% and the remaining activity at 1 µM [6, 30] was 100%. For the same molecule, the remaining activity at 1 µM [7, 30] was 100%, the remaining activity at 1 µM [8, 30] was 98% and the remaining activity at 1 µM [9, 30] was 99%. It also gave a remaining activity at 1 µM [10, 30] of 100%, a remaining activity at 1 µM [11, 30] of 100% and a remaining activity at 1 µM [12, 30] of 96%. It also gave a remaining activity at 1 µM [13, 30] of 0.25%, a remaining activity at 1 µM [14, 30] of 92% and a remaining activity at 1 µM [15, 30] of 100%. For the same molecule, the remaining activity at 1 µM [16, 31] was 100%, the remaining activity at 1 µM [17, 30] was 100% and the remaining activity at 1 µM [18, 30] was 0.2%. The remaining activity at 1 µM [19, 30] was 38%, the remaining activity at 1 µM [20, 31] was 100% and the remaining activity at 1 µM ([20]; read-out: HYJ-2-002-1 (1μM) % control, Kin.Dom.2-C-terminal) was 28%. The remaining activity at 1 µM [21, 30] was 100%, the remaining activity at 1 µM [22, 30] was 6.6% and the remaining activity at 1 µM [23, 30] was 100%. For the same molecule, the remaining activity at 1 µM [24, 30] was 78%, the remaining activity at 1 µM [25, 30] was 3.9% and the remaining activity at 1 µM [26, 30] was 100%. The remaining activity at 1 µM [27, 30] was 21%, the remaining activity at 1 µM [28, 30] was 15% and the remaining activity at 1 µM [29, 30] was 90%.

`CN1CCN(c2ccc(Nc3nc(Oc4ccc(NC(=O)CCl)cc4)c4cc[nH]c4n3)cc2)CC1` [CPT1-70-1] gave a remaining activity at 1 µM [1, 32] of 50%, a remaining activity at 1 µM [2, 32] of 100% and a remaining activity at 1 µM [3, 32] of 100%. For the same molecule, the remaining activity at 1 µM [4, 32] was 70%, the remaining activity at 1 µM [5, 32] was 100% and the remaining activity at 1 µM [6, 32] was 84%. It also gave a remaining activity at 1 µM [7, 32] of 90%, a remaining activity at 1 µM [8, 32] of 29% and a remaining activity at 1 µM [9, 32] of 12%. For the same molecule, the remaining activity at 1 µM [10, 32] was 100%, the remaining activity at 1 µM [11, 32] was 100% and the remaining activity at 1 µM [12, 32] was 100%. For the same molecule, the remaining activity at 1 µM [13, 32] was 100%, the remaining activity at 1 µM [14, 32] was 13% and the remaining activity at 1 µM [15, 32] was 97%. The remaining activity at 1 µM [16, 33] was 100%, the remaining activity at 1 µM [17, 32] was 100% and the remaining activity at 1 µM [18, 32] was 6.6%. It also gave a remaining activity at 1 µM [19, 32] of 100%, a remaining activity at 1 µM [20, 33] of 45% and a remaining activity at 1 µM ([20]; read-out: CPT-1-70-1 (1μM) % control, Kin.Dom.2-C-terminal) of 100%. The remaining activity at 1 µM [21, 32] was 63%, the remaining activity at 1 µM [22, 32] was 30% and the remaining activity at 1 µM [23, 32] was 25%. It also gave a remaining activity at 1 µM [24, 32] of 100%, a remaining activity at 1 µM [25, 32] of 71% and a remaining activity at 1 µM [26, 32] of 61%. The remaining activity at 1 µM [27, 32] was 66%, the remaining activity at 1 µM [28, 32] was 0.95% and the remaining activity at 1 µM [29, 32] was 100%.
